Laboratory results from patent publication US5180712A, “Petide antidementia and nootropic agents” (Fujirebio Kabushiki Kaisha, priority 1988, dated 1993).
Where a SMILES comes first, the peptide text is derived from it. Bridges are numbered along the chain shown (N, C = ends). Roman numbers before positions name the chains, in order. [ ]: non-standard residue; d: D form. The star is where a group is joined. Cys(free,S-linked) = N[C@@H](CS*)C(=O)O; pGlu = O=C1CC[C@@H](C(=O)O)N1

Assays:
male Wistar rats [1] = test: one-trial passive avoidance: facilitation effect of memory consolidation; type: in vivo, rat; conditions: for Effect (ratio of the response latent period of each group to that of the control groups): retention tested 24 hours later, latency max 600 seconds
Experimental: The effect of peptides of the invention on memory consolidation was evaluated by conducting one-trial passive avoidance experiments using male Wistar rats in accordance with the method described by Burbach et al., Science, vol. 221, pp. 1310-1312, 1983. The apparatus was composed of an illuminated room and a dark room, and their floors were made of a stainless-steel grid. The rats placed in the illuminated room could freely enter the dark room. Upon entering the dark room the rats received an electro-shock. Retention of passive avoidance behavior to the electro-shock was determined by the measurement of a response latent period, i.e. the period required for the rat which experienced the electro-shock to re-enter the dark room from the time at which the rat was placed in the illuminated room after predetermined intervals. The rats were treated with the peptides of the invention obtained in the aforementioned Example 1 to 4 or a physiological saline solution by means of a subcutaneous injection immediately after receiving the electro-shock (0.25 mA). Then 24 hours later, the retention of the memory of the electro-shock was tested. […] Comparison Compound 2 (known peptide): [drawing 14] For each group, 6 to 8 rats were tested. The response latent period was measured up to a maximum of 600 seconds. The dose and the effect (the ratio of the response latent period of each group to that of the control groups, shown as %) of the peptides obtained in each example and the peptides of each comparison compound are set forth in Table 1.

male Wistar rats [2] = test: one-trial passive avoidance: improvement effect of experimental retrograde amnesia by cycloheximide; type: in vivo, rat; conditions: 1 hr before electro-shock (0.5 mA), cycloheximide 2.7 to 3.0 mg/kg s.c. after shock, tested at 48 hours
Experimental: The effect of peptides of the invention on memory consolidation was evaluated by conducting one-trial passive avoidance experiments using male Wistar rats in accordance with the method described by Burbach et al., Science, vol. 221, pp. 1310-1312, 1983. The apparatus was composed of an illuminated room and a dark room, and their floors were made of a stainless-steel grid. The rats placed in the illuminated room could freely enter the dark room. Upon entering the dark room the rats received an electro-shock. Retention of passive avoidance behavior to the electro-shock was determined by the measurement of a response latent period, i.e. the period required for the rat which experienced the electro-shock to re-enter the dark room from the time at which the rat was placed in the illuminated room after predetermined intervals. The rats received an electro-shock (0.5 mA) one hr. after the administration of the peptides of the invention or a physiological saline solution. Immediately after receiving the electro-shock, the rats were treated with 2.7 to 3.0 mg/kg of cycloheximide or the saline solution by subcutaneous injection. At 48 hours after the administration was made, memory retention of the rats was tested. […] The average response latent period of rats administered with each peptide of the invention and treated with cycloheximide were compared with that of the control group. Six to eight rats were used for each group tested. The response latent period was measured up to a maximum of 600 seconds. The dose and the effect (the ratio of response latent period of each group to that of the control groups, shown as %) of the peptides obtained in each example and the peptides of each comparison example are set forth in Table 2.

[3] = dose 1 ng/kg subcutaneous immediately after electro-shock (0.25 mA)

| SMILES | Effect (ratio of the response latent period of each group to that of the control groups) (male Wistar rats [1]; dose 10 ng/kg subcutaneous immediately after electro-shock (0.25 mA)) [%] | Effect (ratio of response latent period of each group to that of the control groups) (male Wistar rats [2]; dose 100 ng/kg) [%] | Effect (ratio of the response latent period of each group to that of the control groups) (male Wistar rats [1]; [3]) [%] | dose giving the same effect, as fraction of the dose of Comparison Compound 1 (male Wistar rats [1]; passive avoidance tests, versus Comparison Compound 1) | Effect (ratio of response latent period of each group to that of the control groups) (male Wistar rats [2]; dose 1 ng/kg) [%] |
| --- | --- | --- | --- | --- | --- |
| N=C(N)NCCC[C@H](NC(=O)[C@@H]1CCCN1C(=O)[C@H](CSSC[C@H](NC(=O)[C@H](CC(N)=O)NC(=O)[C@@H]1CCC(=O)N1)C(=O)N1CCC[C@H]1C(=O)N[C@@H](CCCNC(=N)N)C(=O)NCC(N)=O)NC(=O)[C@H](CC(N)=O)NC(=O)[C@@H]1CCC(=O)N1)C(=O)NCC(N)=O [Comparison 2, reference compound] (I: [pGlu]NCPRG-NH2 / II: [pGlu]NCPRG-NH2; disulfide I:3-II:3) | 249 | 503 | – | – | – |
| N=C(N)NCCC[C@@H](NC(=O)[C@@H]1CCCN1C(=O)[C@H](CSSC[C@H](N)C(=O)O)NC(=O)[C@H](CC(N)=O)NC(=O)[C@@H]1CCC(=O)N1)C(=O)NCC(N)=O [Example 1] ([pGlu]NC(Cys(free,S-linked))P[dR]G-NH2) | – | – | 267 | 1/10 | 302 |
| N=C(N)NCCC[C@H](NC(=O)[C@@H]1CCCN1C(=O)[C@H](CS)NC(=O)[C@H](CC(N)=O)NC(=O)[C@@H]1CCC(=O)N1)C(=O)NCC(N)=O [Example 2, pGlu-Asn-Cys-Pro-Arg-Gly--NH2 acetate] ([pGlu]NCPRG-NH2) | – | – | 295 | – | 633 |
| N=C(N)NCCC[C@H](NC(=O)[C@H]1CCCN1C(=O)[C@H](CSSC[C@H](N)C(=O)O)NC(=O)[C@H](CC(N)=O)NC(=O)[C@@H]1CCC(=O)N1)C(=O)NCC(N)=O [Example 3] ([pGlu]NC(Cys(free,S-linked))[dP]RG-NH2) | – | – | 253 | – | 380 |
| N=C(N)NCCC[C@H](NC(=O)[C@@H]1CCCN1C(=O)[C@H](CS)NC(=O)[C@@H](N)CC(N)=O)C(=O)O [Example 4, H-Asn-Cys-Pro-Arg-OH acetate] (H-NCPR-OH) | – | – | 316 | – | 320 |
